The source of these data is ChEMBL document CHEMBL1136094, “Novel, potent and selective cyclin D1/CDK4 inhibitors: indolo[6,7-a]pyrrolo[3,4-c]carbazoles” (Bioorg Med Chem Lett, 2003).

Experiment [1] deals with T1, Cyclin-dependent kinase 4/cyclin D1 (Homo sapiens, UniProt P11802). Description: Inhibitory activity against Cyclin D1-cyclin-dependent kinase 4 in enzymatic assay by measuring phosphorylation of Rb21. Format: protein-complex assay.
In experiment [2] the target is T1, Cyclin-dependent kinase 4/cyclin D1. Description: Inhibitory activity against Cyclin D1-cyclin-dependent kinase 4 in enzymatic assay by measuring phosphorylation of RbING. Format: protein-complex assay.
The next experiment relates to HCT-116. Description: In vitro antiproliferative activity against human carcinoma cell line HCT116 (colon). Format: functional, cell-based.
In the next experiment the test system is NCI-H460. Description: In vitro antiproliferative activity against human carcinoma cell line H460 (lung). Format: functional, cell-based.
Experiment [3] addresses cAMP-dependent protein kinase (PKA) (Homo sapiens, UniProt P22694+P17612+P22612). The experiment in a line: Inhibitory activity against Protein kinase A (Histone). Format: protein assay.
In experiment [4] the target is Cyclin-dependent kinase 2/cyclin E (Homo sapiens, UniProt P24941). Description: Inhibitory activity against Cyclin E-cyclin-dependent kinase 2 in enzymatic assay by measuring phosphorylation of RbING. The format is protein-complex assay.

Bounds are passed on as bounds.

T1 sequence (P11802 whole entry): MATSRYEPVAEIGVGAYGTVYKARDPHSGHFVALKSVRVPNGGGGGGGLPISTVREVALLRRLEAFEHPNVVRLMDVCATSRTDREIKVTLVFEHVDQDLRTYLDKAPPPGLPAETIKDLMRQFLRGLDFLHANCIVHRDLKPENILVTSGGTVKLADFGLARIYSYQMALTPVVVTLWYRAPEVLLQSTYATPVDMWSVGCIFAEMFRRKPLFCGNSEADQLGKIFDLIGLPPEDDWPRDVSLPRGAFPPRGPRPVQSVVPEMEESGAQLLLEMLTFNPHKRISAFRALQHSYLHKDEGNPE
T1 sequence (P24385 whole entry, further chain): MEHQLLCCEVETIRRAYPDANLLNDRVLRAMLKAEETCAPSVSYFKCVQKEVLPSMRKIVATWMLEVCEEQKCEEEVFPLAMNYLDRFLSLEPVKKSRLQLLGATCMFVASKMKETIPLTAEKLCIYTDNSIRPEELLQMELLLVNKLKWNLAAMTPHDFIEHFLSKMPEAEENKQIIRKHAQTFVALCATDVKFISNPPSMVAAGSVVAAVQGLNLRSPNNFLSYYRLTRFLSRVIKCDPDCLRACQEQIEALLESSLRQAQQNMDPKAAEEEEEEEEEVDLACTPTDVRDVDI

Consider `CCn1ccc2ccc3c4[nH]c5ccccc5c4c4c(c3c21)C(=O)NC4=O`, for which the half-maximal inhibitory concentration (IC50) was 19 nM in experiment [1]; 59 nM in experiment [2]; 4520 nM in the experiment with HCT-116; more than 10000 nM in the experiment on NCI-H460; more than 2000 nM in experiment [3].

With `Cc1cc2ccn(C)c2c2c3c(c4c5ccccc5n(CCCCO)c4c12)C(=O)NC3=O`, the half-maximal inhibitory concentration (IC50) was more than 2000 nM in experiment [2], more than 10000 nM in the experiment with HCT-116, more than 10000 nM in the experiment with NCI-H460 and 11700 nM in experiment [3].

For `COc1cccc2[nH]c3c4ccc5ccn(C)c5c4c4c(c3c12)C(=O)NC4=O`, the IC50 is more than 2000 nM in experiment [2], more than 10000 nM with HCT-116 and more than 10000 nM in the experiment on NCI-H460.

Consider `Cn1ccc2ccc3c4[nH]c5cc(OCc6ccccc6)ccc5c4c4c(c3c21)C(=O)NC4=O`, for which the IC50 in experiment [4] is 328 nM; in experiment [1] it was 25 nM; in experiment [2], 123 nM; with HCT-116 it was 6520 nM; in the experiment with NCI-H460, more than 10000 nM; in experiment [3], 3290 nM.

Consider `COc1ccc2c3c4c(c5c(ccc6ccn(C)c65)c3n(CCO)c2c1)C(=O)NC4=O`, for which the IC50 in experiment [4] is 101 nM; in experiment [1] it was 24 nM; in experiment [2], 47 nM; in the experiment on HCT-116, 4070 nM; with NCI-H460, 1320 nM; in experiment [3], 1620 nM.

For `Cn1ccc2ccc3c4[nH]c5cc(C#N)ccc5c4c4c(c3c21)C(=O)NC4=O`, the IC50 in experiment [4] is 10 nM; in experiment [1], 11 nM; in experiment [2], 29 nM; with HCT-116 it was more than 10000 nM; with NCI-H460, more than 10000 nM; in experiment [3], more than 20000 nM.

As to `COc1ccc2c(c1)[nH]c1c3ccc4cc[nH]c4c3c3c(c21)C(=O)NC3=O`, the IC50 in experiment [4] stood at 125 nM; in experiment [1] it was 36 nM; in experiment [2], 67 nM; in the experiment with HCT-116, 2160 nM; in the experiment on NCI-H460, 1920 nM; in experiment [3] it was 11400 nM.

On to `Cn1ccc2cc(F)c3c(c4c(c5c6ccccc6n(CCCO)c53)C(=O)NC4=O)c21`, for which the 50% inhibitory concentration (IC50) was 448 nM in experiment [1], 346 nM in experiment [2], 2390 nM in the experiment on HCT-116 and 2480 nM with NCI-H460.

For `Cc1cc2ccn(C)c2c2c3c(c4c5ccc(C(F)(F)F)cc5[nH]c4c12)C(=O)NC3=O`, the IC50 is more than 2000 nM in experiment [4]; 25 nM in experiment [1]; 92 nM in experiment [2]; 8780 nM in the experiment on HCT-116; 2420 nM with NCI-H460; more than 20000 nM in experiment [3].

As for `COc1ccc2[nH]c3c4ccc5ccn(C)c5c4c4c(c3c2c1)C(=O)NC4=O`, the IC50 in experiment [4] is more than 2000 nM; in experiment [1], 680 nM; in experiment [2], 519 nM; in the experiment on HCT-116, more than 10000 nM; in the experiment on NCI-H460, more than 10000 nM; in experiment [3], more than 20000 nM.

`CCn1ccc2ccc3c(c4c(c5c6ccccc6n(CCCO)c35)C(=O)NC4=O)c21`: the IC50 in experiment [4] came out at 400 nM; in experiment [1] it was 90 nM; in experiment [2], 134 nM; in the experiment with HCT-116, 1200 nM; in the experiment with NCI-H460, 1770 nM; in experiment [3], 5310 nM.

On to `Cn1ccc2ccc3c4[nH]c5c(Br)cccc5c4c4c(c3c21)C(=O)NC4=O`, for which the results for the IC50 (in experiment [2]; with HCT-116; in the experiment with NCI-H460) were 93 nM, 17100 nM and 13800 nM, respectively.

The compound `Cn1ccc2ccc3c4[nH]c5ccc(Br)cc5c4c4c(c3c21)C(=O)NC4=O` came in with a half-inhibitory concentration (IC50) in experiment [2] of more than 2000 nM.

`O=C1NC(=O)c2c1c1c3ccccc3[nH]c1c1[nH]c3ccccc3c21` [STAUROSPORINE AGLYCON]: the IC50 in experiment [4] came to 897 nM; in experiment [2], 140 nM; with HCT-116 it was 850 nM; in the experiment with NCI-H460 it was 590 nM.

On to `Cn1ccc2ccc3c(c4c(c5c6ccccc6n(CCCO)c35)C(=O)NC4=O)c21`, for which the IC50 in experiment [4] was 67 nM; in experiment [1], 42 nM; in experiment [2] it was 96 nM; in the experiment with HCT-116 it was 1360 nM; in the experiment on NCI-H460, 1130 nM; in experiment [3], more than 2000 nM.

`Cc1ccc2c(c1)[nH]c1c3ccc4ccn(C)c4c3c3c(c21)C(=O)NC3=O`: the IC50 in experiment [4] is 320 nM; in experiment [1], 18 nM; in experiment [2] it was 48 nM; with HCT-116, 3840 nM; in the experiment on NCI-H460, 3410 nM; in experiment [3], more than 20000 nM.

As to `Cc1cc2ccn(C)c2c2c3c(c4c5ccc(F)cc5[nH]c4c12)C(=O)NC3=O`, the half-maximal inhibitory concentration (IC50) was 23 nM in experiment [4]; 6 nM in experiment [1]; 50 nM in experiment [2]; 580 nM in the experiment on HCT-116; 1020 nM with NCI-H460; more than 20000 nM in experiment [3].

As to `Cc1ccc2[nH]c3c4ccc5ccn(C)c5c4c4c(c3c2c1)C(=O)NC4=O`, the IC50 in experiment [4] worked out at 1070 nM; in experiment [1], 407 nM; in experiment [2], 393 nM; in the experiment with HCT-116, 2870 nM; in the experiment on NCI-H460, 3350 nM; in experiment [3], 4060 nM.

As to `O=C1NC(=O)c2c1c1c(ccc3cc[nH]c31)c1[nH]c3ccccc3c21`, the half-inhibitory concentration (IC50) in experiment [4] was 64 nM; in experiment [1], 22 nM; in experiment [2], 36 nM; with HCT-116, 1440 nM; in the experiment on NCI-H460, 1430 nM; in experiment [3], more than 2000 nM.

As to `O=C1NC(=O)c2c1c1c(ccc3cc[nH]c31)c1[nH]c3cc(O)ccc3c21`, the concentration for half-maximal inhibition (IC50) was 6 nM in experiment [4]; 17 nM in experiment [1]; 37 nM in experiment [2]; 170 nM with HCT-116; 230 nM in the experiment with NCI-H460; 949 nM in experiment [3].

For `Cn1ccc2ccc3c4[nH]c5cccc(F)c5c4c4c(c3c21)C(=O)NC4=O`, the half-maximal inhibitory concentration (IC50) was more than 2000 nM in experiment [4]; 81 nM in experiment [1]; 71 nM in experiment [2]; more than 2000 nM in the experiment on HCT-116; more than 10000 nM in the experiment with NCI-H460; more than 20000 nM in experiment [3].

For the compound `Cn1ccc2ccc3c4[nH]c5cccc(CO)c5c4c4c(c3c21)C(=O)NC4=O`, the IC50 in experiment [4] was more than 2000 nM; in experiment [1] it was 216 nM; in experiment [2], 155 nM; in the experiment with HCT-116 it was more than 10000 nM; with NCI-H460 it was more than 10000 nM; in experiment [3], more than 20000 nM.

Turning to `Cn1ccc2ccc3c4[nH]c5cccc(Br)c5c4c4c(c3c21)C(=O)NC4=O`, the IC50 in experiment [1] was 136 nM; in experiment [2], 171 nM; with HCT-116, 4710 nM; in the experiment with NCI-H460 it was 3520 nM; in experiment [3], more than 20000 nM.

`Cn1ccc2ccc3c4[nH]c5ccc(C(F)(F)F)cc5c4c4c(c3c21)C(=O)NC4=O`: the 50% inhibitory concentration (IC50) was more than 2000 nM in experiment [2], 7040 nM in the experiment on HCT-116 and 7850 nM in the experiment on NCI-H460.

With `Cc1cc2ccn(C)c2c2c3c(c4c5ccccc5n(CCCO)c4c12)C(=O)NC3=O`, the IC50 amounted to 673 nM in experiment [2], 3850 nM in the experiment on HCT-116 and 4750 nM in the experiment on NCI-H460.

Turning to `O=C1NC(=O)c2c1c1c(ccc3cc[nH]c31)c1[nH]c3cc(OCc4ccccc4)ccc3c21`, the 50% inhibitory concentration (IC50) is 378 nM in experiment [1], 187 nM in experiment [2], more than 10000 nM in the experiment on HCT-116 and more than 10000 nM in the experiment with NCI-H460.

For the compound `CCc1ccc2c(c1)[nH]c1c3ccc4ccn(C)c4c3c3c(c21)C(=O)NC3=O`, the IC50 is 22 nM in experiment [1]; 101 nM in experiment [2]; 3510 nM in the experiment with HCT-116; 7490 nM in the experiment with NCI-H460; more than 20000 nM in experiment [3].
